Source: patent US11077113B2, “6-aryl-4-morpholin-1-ylpyridone compounds useful for the treatment of cancer and diabetes” (priority 2016, dated 2021)

Columns and labels:
autophagy in HOS cells = experiment: High Content Screening Autophagy Assay (GFP-LC3 foci); format: cell-based; settings: Homo sapiens; HOS cells expressing GFP-LC3; autophagy activated with KU-0063794 500 nM plus Bafilomycin A1 5 nM; 6 hours; foci area per cell; read-out: Median IC50 μM Cellular assay
Protocol: High Content Screening Autophagy Assay
Human osteosarcoma cells (HOS) stably expressing a Green Fluorescent Protein (GFP) tagged LC3 (GFP-LC3) were used to determine the inhibitory effect on autophagy of proprietary compounds. For that purpose, autophagy was activated by using the mTOR inhibitor KU-0063794 at 500 nM in the presence of Bafilomycin A1 (Sigma-Aldrich) at 5 nM. Shortly, cells were plated overnight in clear bottom 96-well plates in DMEM-High Modified media (Hi-Clone Cat #SH30285.01). At the start of the experiment, the media was removed and replaced with fresh media containing the mTOR inhibitor, Bafilomycin A1 and the vehicle or a test compound as indicated. After 6 hours the media was removed, cells were washed twice with ice-cold phosphate buffered saline (PBS) and fixed with 4% paraformaldehyde for 20 minutes at room temperature. Then the cells were washed twice with ice-cold PBS before adding Hoechst 33342 at 1 μg/ml in PBS for nuclear staining. After incubation overnight at 4° C., cells were washed once with PBS to remove the excess of dye and 100 μl of PBS was added to each well. Images were acquired at 20× magnification, 6 images per well, using the ImageXpress automated microscope (Molecular Devices Inc.) and analyzed with MetaXpress software to identify LC3-GFP foci. Foci area per cell values were used to generate dose response curves and IC50 calculated using non-linear fitting analysis in GraphPad Prism software.
The results of the assay are shown in Table 2 (Median IC50 μM Cellular assay).

Vps34 enzyme = Vps34 enzyme (Homo sapiens (Human), UniProt Q8NEB9); experiment: Vps34 Biochemical Assay (Adapta TR-FRET); settings: 20 μM ATP and 200 μM PI:PS in substrate mix, 1 h at room temperature, read-out: Median IC50 μM Adapta
Protocol: Dilution series of compounds of the invention were prepared in DMSO at 100 times the final assay concentration (n1=n0/3 in 10 points). The compounds were further diluted to 4 times the assay concentration in assay buffer (Life technologies buffer Q, PV5125, diluted 5 times supplemented with 2 mM DTT and 2 mM MnCl2). 2.5 μl of the diluted compounds were added to a 384 well assay plate followed by 2.5 μl of 16.5 nM Vps34 enzyme (Life technologies, PV5126). Enzyme and compounds were preincubated at rt for 15 min. Then 5 μl of substrate mix containing 20 μM ATP (Life technologies, PV3227) and 200 μM PI:PS substrate (Life technologies, PV5122) in assay buffer was added to the wells containing compound and enzyme and mixing was performed by pipetting several times. The reaction was incubated at room temperature for 1 h. Then 5 μl stop-detection mix, prepared as described in the adapta kinase assay kit instructions (Life technologies, PV5099) containing Adapta Eu-anti-ADP antibody (2.3 nM), Alexa Fluor 647 ADP tracer (9 nM) and EDTA (30 mM) in TR-FRET buffer, was added to quench the reaction. Mixing was performed by pipetting several times. The assay plate was then incubated at room temperature for 30 min and read with Artemis micro plate reader. Percent inhibition of the compounds as compared to DMSO treated control samples was calculated. By the use of Dotmatics software compound concentration versus percent inhibition was fitted to generate IC50 values.

Sequence of Vps34 enzyme (Q8NEB9 whole entry): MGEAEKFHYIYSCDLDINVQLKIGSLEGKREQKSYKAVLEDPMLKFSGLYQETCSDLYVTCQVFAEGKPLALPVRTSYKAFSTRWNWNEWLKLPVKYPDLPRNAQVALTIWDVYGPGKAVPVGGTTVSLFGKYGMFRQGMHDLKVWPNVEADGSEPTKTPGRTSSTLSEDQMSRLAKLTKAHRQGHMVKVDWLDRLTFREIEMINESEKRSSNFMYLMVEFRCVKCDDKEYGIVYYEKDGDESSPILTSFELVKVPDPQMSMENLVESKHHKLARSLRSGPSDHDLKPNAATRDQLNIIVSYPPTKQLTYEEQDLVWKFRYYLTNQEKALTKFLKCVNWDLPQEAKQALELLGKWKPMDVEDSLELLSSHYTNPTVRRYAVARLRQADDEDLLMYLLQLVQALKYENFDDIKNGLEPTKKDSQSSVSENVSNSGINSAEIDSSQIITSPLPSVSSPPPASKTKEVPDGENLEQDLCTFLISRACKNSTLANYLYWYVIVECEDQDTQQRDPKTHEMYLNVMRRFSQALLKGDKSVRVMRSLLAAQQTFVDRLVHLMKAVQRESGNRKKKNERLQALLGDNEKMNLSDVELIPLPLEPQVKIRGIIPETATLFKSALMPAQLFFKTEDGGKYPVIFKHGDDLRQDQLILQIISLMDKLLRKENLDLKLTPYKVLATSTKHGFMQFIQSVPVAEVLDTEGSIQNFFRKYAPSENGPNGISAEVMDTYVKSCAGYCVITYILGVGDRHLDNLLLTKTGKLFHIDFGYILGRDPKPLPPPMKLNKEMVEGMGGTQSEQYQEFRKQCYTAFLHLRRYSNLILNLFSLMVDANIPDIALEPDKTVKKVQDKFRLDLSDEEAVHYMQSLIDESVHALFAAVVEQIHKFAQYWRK

O=c1cc(N2CCOCC2)cc(-c2ccccc2Cl)[nH]1 [Example 1, 6-(2-chlorophenyl)-4-morpholino-1H-pyridin-2-one]
IC50 (autophagy in HOS cells): 2 µM | IC50 (Vps34 enzyme): 0.03 µM

Cn1c(-c2ccccc2Cl)cc(N2CCOCC2)cc1=O [Example 2, 6-(2-chlorophenyl)-1-methyl-4-morpholino-pyridin-2-one]
IC50 (autophagy in HOS cells): 3 µM | IC50 (Vps34 enzyme): 0.05 µM

CC1COCCN1c1cc(-c2ccccc2Cl)[nH]c(=O)c1 (stereo not drawn) [Example 3, 6-(2-chlorophenyl)-4-(3-methylmorpholin-4-yl)-1H-pyridin-2-one]
IC50 (autophagy in HOS cells): 0.7 µM | IC50 (Vps34 enzyme): 0.01 µM

CC1COCCN1c1cc(-c2ccccc2Cl)n(C)c(=O)c1 (stereo not drawn) [Example 4, 6-(2-chlorophenyl)-1-methyl-4-(3-methylmorpholin-4-yl)pyridin-2-one]
IC50 (autophagy in HOS cells): 1 µM | IC50 (Vps34 enzyme): 0.02 µM

Cc1ccncc1-c1cc(N2CCOCC2C)cc(=O)[nH]1 (stereo not drawn) [Example 5, 4-(3-methylmorpholin-4-yl)-6-(4-methyl-3-pyridyl)-1H-pyridin-2-one]
IC50 (autophagy in HOS cells): 14 µM | IC50 (Vps34 enzyme): 0.1 µM

CC1COCCN1c1cc(-c2cncnc2)[nH]c(=O)c1 (stereo not drawn) [Example 6, 4-(3-methylmorpholin-4-yl)-6-pyrimidin-5-yl-1H-pyridin-2-one]
IC50 (autophagy in HOS cells): 14 µM | IC50 (Vps34 enzyme): 1 µM

CC1COCCN1c1cc(-c2ccccc2-c2ccccc2)[nH]c(=O)c1 (stereo not drawn) [Example 7, 4-(3-methylmorpholin-4-yl)-6-(2-phenylphenyl)-1H-pyridin-2-one]
IC50 (Vps34 enzyme): 0.06 µM

C[C@@H]1COCCN1c1cc(-c2cc(F)ccc2Cl)[nH]c(=O)c1 [Example 8, 6-(2-chloro-5-fluoro-phenyl)-4-[(3R)-3-methylmorpholin-4-yl]-1H-pyridin-2-one]
IC50 (autophagy in HOS cells): 1 µM | IC50 (Vps34 enzyme): 0.01 µM

Cc1ccccc1-c1cc(N2CCOC[C@H]2C)cc(=O)[nH]1 [Example 9, 4-[(3R)-3-methylmorpholin-4-yl]-6-(o-tolyl)-1H-pyridin-2-one]
IC50 (Vps34 enzyme): 0.03 µM

C[C@@H]1COCCN1c1cc(-c2cccnc2C(F)(F)F)[nH]c(=O)c1 [Example 10, 4-[(3R)-3-methylmorpholin-4-yl]-6-[2-(trifluoromethyl)-3-pyridyl]-1H-pyridin-2-one]
IC50 (autophagy in HOS cells): 0.09 µM | IC50 (Vps34 enzyme): 0.02 µM

C[C@@H]1COCCN1c1cc(-c2ccccc2Cl)[nH]c(=O)c1 [Example 11, 6-(2-chlorophenyl)-4-[(3R)-3-methylmorpholin-4-yl]-1H-pyridin-2-one]
IC50 (autophagy in HOS cells): 0.6 µM | IC50 (Vps34 enzyme): 0.007 µM

C[C@@H]1COCCN1c1cc(-c2ccccc2C(F)(F)F)[nH]c(=O)c1 [Example 12, 4-[(3R)-3-methylmorpholin-4-yl]-6-[2-(trifluoromethyl)phenyl]-1H-pyridin-2-one]
IC50 (autophagy in HOS cells): 0.6 µM | IC50 (Vps34 enzyme): 0.007 µM

C[C@@H]1COCCN1c1cc(-c2ccoc2)[nH]c(=O)c1 [Example 13, 6-(3-furyl)-4-[(3R)-3-methylmorpholin-4-yl]-1H-pyridin-2-one]
IC50 (Vps34 enzyme): 0.2 µM

Cc1cscc1-c1cc(N2CCOC[C@H]2C)cc(=O)[nH]1 [Example 14, 4-[(3R)-3-methylmorpholin-4-yl]-6-(4-methyl-3-thienyl)-1H-pyridin-2-one]
IC50 (Vps34 enzyme): 0.03 µM

C[C@@H]1COCCN1c1cc(-c2ccccc2NS(C)(=O)=O)[nH]c(=O)c1 [Example 15, N-[2-[4-[(3R)-3-methylmorpholin-4-yl]-6-oxo-1H-pyridin-2-yl]phenyl]methanesulfonamide]
IC50 (Vps34 enzyme): 0.2 µM

Cc1ccc2ncccc2c1-c1cc(N2CCOC[C@H]2C)cc(=O)[nH]1 [Example 16, 4-[(3R)-3-methylmorpholin-4-yl]-6-(6-methyl-5-quinolyl)-1H-pyridin-2-one]
IC50 (Vps34 enzyme): 0.2 µM

C[C@@H]1COCCN1c1cc(-c2ccc(-c3ccn[nH]3)cc2)[nH]c(=O)c1 [Example 17, 4-[(3R)-3-methylmorpholin-4-yl]-6-[4-(1H-pyrazol-5-yl)phenyl]-1H-pyridin-2-one]
IC50 (Vps34 enzyme): 0.2 µM
